Results reported in patent US20050238628A1, “Methods for treating cancer” (priority 2004, published 2005).
“Also recorded” adds a separate entry of the source.

Legend:
Ba/F3EpoRAbl cells = settings: nude mice, tail vein injection of cells followed by injections of erythropoietin; cited from earlier work
Reh cells (EpoR) = assay: STAT5 phosphorylation in Reh cells upon addition of erythropoietin; type: cell-based; settings: human TEL/AML1+ ALL line
Description: A number of nonerythroid cell lines have been examined for EpoR expression.

[1] = test system: Ba/F3 cells expressing the GyrB/Flt3 construct; assay: Growth of Ba/F3 cells expressing GyrB/Flt3 in the presence of the CID coumermycin; type: cell-based; settings: FIG. 1
Description: (§1) An MSCV-based vector was constructed that encodes a fusion protein containing a myristylation domain linked to DNA gyrase B, which in turn is linked to the intracellular portion of murine flt-3, which in turn is linked to an HA epitope tag. […] Ba/F3 cells expressing the GyrB/Flt3 construct can be distinguished from Ba/F3 cells expressing EpoR/Abl using intracellular flow cytometry with an antibody directed against the HA tag.

[2] = test system: Ba/F3 cells expressing EpoR/Abl mixed with Ba/F3 cells expressing GyrB/Flt3; assay: Mixed culture of EpoR/Abl and GyrB/Flt3 Ba/F3 cells, HA tag flow cytometry; type: cell-based; settings: coumermycin 1 nM, absence of IL-3, 4 days, flow cytometry for HA tag; FIG. 2
Protocol: A cDNA containing the EpoRIAbl construct was used to transduce Ba/F3 cells by retroviral gene transfer. After two days, IL-3 containing medium was washed away, and cells were cultured in the presence of erythropoietin (3 units/ml), without IL-3, to generate a polyclonal pool of erythropoietin dependent cells.
as §1
After 4 days, the frequency of cells expressing the HA tag was determined by flow cytometry.

Substance | death of mice injected with Ba/F3EpoRAbl cells (Ba/F3EpoRAbl cells) | STAT5 phosphorylation (Reh cells (EpoR)) | growth of Ba/F3 cells in the presence of the CID [1] | erythropoietin responsive (HA-negative) cells in mixed culture [2]
erythropoietin | induce death with a timecourse that is dependent on the concentration of exogenously administered Epo | exhibit STAT5 phosphorylation | – | –
coumermycin | – | – | capable of growth; also recorded: capable of group | sharp reduction in erythropoietin responsive (HA-negative) cells
